According to ChEMBL document CHEMBL3124761, “Synthesis and biological evaluation of N,N'-squaramides with high in vivo efficacy and low toxicity: toward a low-cost drug against Chagas disease” (J Med Chem, 2014):
Calls of active or inactive are those of the source. The rule behind the calls is not given here.

Tests used:
Vero = experiment: Cytotoxicity against African green monkey Vero cells assessed as cell viability after 72 hrs by propidium iodide/fluorescein diacetate staining-based flow cytometric analysis; conditions: Chlorocebus sabaeus
Mus musculus [1] = experiment: Toxicity in BALB/c albino mouse infected with blood trypomastigote stage of Trypanosoma cruzi assessed as change in LDH level in serum at 500 mg/kg, ip relative to control; type: organism-based; set-up: dose 500 mg/kg, route intraperitoneal; conditions: in vivo
Mus musculus [2] = experiment: Toxicity in BALB/c albino mouse infected with blood trypomastigote stage of Trypanosoma cruzi assessed as change in uric acid level in serum at 40 mg/kg, ip administered on day 7 to 12 post-infection measured after day 150 relative to control; type: organism-based; set-up: dose 40 mg/kg, route intraperitoneal; conditions: in vivo
Trypanosoma cruzi [3] = experiment: Antitrypanosomal activity against amastigote stage of Trypanosoma cruzi IRHOD/CO/2008/SN3 infected in African green monkey Vero cells assessed as parasite growth inhibition after 72 hrs by Giemsa staining-based microscopic analysis; type: functional, organism-based; conditions: IRHOD/CO/2008/SN3, Vero
Mus musculus [4] = experiment: Toxicity in BALB/c albino mouse infected with blood trypomastigote stage of Trypanosoma cruzi assessed as change in uric acid level in serum at 500 mg/kg, ip; type: organism-based; set-up: dose 500 mg/kg, route intraperitoneal; conditions: in vivo
Mus musculus [5] = experiment: Toxicity in BALB/c albino mouse infected with blood trypomastigote stage of Trypanosoma cruzi assessed as increase in LDH level in serum at 25 mg/kg, ip administered on day 7 to 12 post-infection measured after day 120 relative to control; type: organism-based; set-up: dose 25 mg/kg, route intraperitoneal; conditions: in vivo
Trypanosoma cruzi [6] = experiment: Antitrypanosomal activity against epimastigote stage of Trypanosoma cruzi IRHOD/CO/2008/SN3 assessed as change in excreted lactate level at IC25 after 96 hrs by 1H NMR analysis relative to control; type: functional
Trypanosoma cruzi [7] = experiment: (§1) Antitrypanosomal activity against amastigote stage of Trypanosoma cruzi IRHOD/CO/2008/SN3 infected in African green monkey Vero cells assessed as decrease in infection rate at IC25 preincubated for 12 hrs followed by compound washout measured every 48 hrs for 10 days by Neubauer hemocytometric chamber analysis relative to control; type: functional
Mus musculus [8] = experiment: Toxicity in BALB/c albino mouse infected with blood trypomastigote stage of Trypanosoma cruzi assessed as change in ALT/GPT level in serum at 500 mg/kg, ip relative to control; type: organism-based; set-up: dose 500 mg/kg, route intraperitoneal; conditions: in vivo
Trypanosoma cruzi [9] = experiment: as §1, with “reduction of amastigote number per cell” for “decrease in infection rate”; type: functional
Mus musculus [10] = experiment: Toxicity in BALB/c albino mouse infected with blood trypomastigote stage of Trypanosoma cruzi assessed as increase in AST/GOT level in serum at 40 mg/kg, ip administered on day 7 to 12 post-infection measured after day 150 relative to control; type: organism-based; set-up: dose 40 mg/kg, route intraperitoneal; conditions: in vivo
Trypanosoma cruzi [11] = experiment: Trypanocidal activity against blood trypomastigote stage of Trypanosoma cruzi infected in immunosuppressed BALB/c albino mouse chronic chagas disease model assessed as cyclophosphamide-induced reactivation of parasitemia at 40 mg/kg, ip administered on day 7 to 12 post-infection measured after day 150 (reference value: 98.1%); type: functional; conditions: route intraperitoneal
Mus musculus [12] = experiment: Toxicity in BALB/c albino mouse infected with blood trypomastigote stage of Trypanosoma cruzi assessed as increase in creatinephophokinase-MB level in serum at 500 mg/kg, ip relative to control; type: organism-based; set-up: dose 500 mg/kg, route intraperitoneal; conditions: in vivo
[13] = Selectivity index, ratio of IC50 for African green monkey Vero cells to IC50 for epimastigote stage of Trypanosoma cruzi IRHOD/CO/2008/SN3; type: toxicity, cell-based; conditions: read-out: Ratio IC50
Trypanosoma cruzi [14] = experiment: Antitrypanosomal activity against epimastigote stage of Trypanosoma cruzi IRHOD/CO/2008/SN3 assessed as change in excreted acetate level at IC25 after 96 hrs by 1H NMR analysis relative to control; type: functional
Mus musculus [15] = experiment: Toxicity in BALB/c albino mouse infected with blood trypomastigote stage of Trypanosoma cruzi assessed as decrease in ALT/GPT level in serum at 40 mg/kg, ip administered on day 7 to 12 post-infection measured after day 150 relative to control; type: organism-based; set-up: dose 40 mg/kg, route intraperitoneal; scale not given: the % may be the effect or the level left; conditions: in vivo
Trypanosoma cruzi [16] = experiment: Trypanocidal activity against blood trypomastigote stage of Trypanosoma cruzi infected in nonimmunosuppressed BALB/c albino mouse chronic chagas disease model assessed as increase in total Ig-G level at 40 mg/kg, ip administered on day 7 to 12 post-infection measured after day 150 by ELISA; type: functional, organism-based; set-up: dose 40 mg/kg

Work on `CCCCNc1c(N(C)CCCN(C)C)c(=O)c1=O` yielded an IC50 (Vero) of 453 µM, an Activity (Mus musculus [1]) of less than 10% and an Activity (Mus musculus [2]) of less than 10%. For the same molecule, the IC50 (Trypanosoma cruzi [3]) was 8.5 µM, the Activity (Mus musculus [4]) was less than 10% and the Activity (Mus musculus [5]) was 10%. The Activity (Trypanosoma cruzi [6]) was -28.3%, the “inhibition (INH)” value (Trypanosoma cruzi [7]) was 67% and the Activity (Mus musculus [8]) was less than 10%. The “inhibition (INH)” value (Trypanosoma cruzi [9]) was 52%, the Activity (Mus musculus [10]) was 10% and the Activity (Trypanosoma cruzi [11]) was 3.1%. It also gave an Activity (Mus musculus [12]) greater than 50%, a selectivity ratio [13] of 48.2 and an Activity (Trypanosoma cruzi [14]) of -18.6%. For the same molecule, the Activity (Mus musculus [15]) was 10% and the Activity (Trypanosoma cruzi [16]) was “Active”.
